Data from ChEMBL document CHEMBL5303573, “Mapping human microbiome drug metabolism by gut bacteria and their genes” (Nature, 2019).

What was measured:
[1] = The drug is tested on Edwardsiella tarda strain: ATCC23685 for biotransformation. The drug concentrations were measured before and after a 12-h incubation by liquid-chromatography-coupled mass spectrometry (LC–MS); conditions: 2 µM
[2] = The drug is tested on Ruminococcus gnavus strain: ATCC29149 for biotransformation. The drug concentrations were measured before and after a 12-h incubation by liquid-chromatography-coupled mass spectrometry (LC–MS); conditions: mediterraneibacter gnavus, 2 µM
[3] = roseburia intestinalis, 12 h, 2 µM
Description: The drug is tested on Roseburia intestinalis strain: L1-82 for biotransformation. The drug concentrations were measured before and after a 12-h incubation by liquid-chromatography-coupled mass spectrometry (LC–MS)

[4] = The drug is tested on Eggerthella lenta strain: ATCC25559 for biotransformation. The drug concentrations were measured before and after a 12-h incubation by liquid-chromatography-coupled mass spectrometry (LC–MS); conditions: 2 µM
[5] = The drug is tested on Clostridium symbiosum strain: ATCC14940 for biotransformation. The drug concentrations were measured before and after a 12-h incubation by liquid-chromatography-coupled mass spectrometry (LC–MS); conditions: 2 µM
[6] = The drug is tested on Bacteroides vulgatus strain: ATCC8482 for biotransformation. The drug concentrations were measured before and after a 12-h incubation by liquid-chromatography-coupled mass spectrometry (LC–MS); conditions: phocaeicola vulgatus, 2 µM
[7] = The drug is tested on Clostridium sp. strain: fecal isolate for biotransformation. The drug concentrations were measured before and after a 12-h incubation by liquid-chromatography-coupled mass spectrometry (LC–MS); conditions: 2 µM
[8] = enterocloster bolteae, 12 h, 2 µM
Description: The drug is tested on Clostridium bolteae strain: ATCCBAA-613 for biotransformation. The drug concentrations were measured before and after a 12-h incubation by liquid-chromatography-coupled mass spectrometry (LC–MS)

[9] = The drug is tested on Bacteroides ovatus strain: ATCC8483 for biotransformation. The drug concentrations were measured before and after a 12-h incubation by liquid-chromatography-coupled mass spectrometry (LC–MS); conditions: 2 µM
[10] = The drug is tested on Bacteroides pectinophilus strain: ATCC43243 for biotransformation. The drug concentrations were measured before and after a 12-h incubation by liquid-chromatography-coupled mass spectrometry (LC–MS); conditions: 2 µM
[11] = The drug is tested on Bifidobacterium ruminantium strain: fecal isolate for biotransformation. The drug concentrations were measured before and after a 12-h incubation by liquid-chromatography-coupled mass spectrometry (LC–MS); conditions: 2 µM
[12] = anaerostipes sp., 12 h, 2 µM
Description: The drug is tested on Anaerostipes sp. strain: fecal isolate for biotransformation. The drug concentrations were measured before and after a 12-h incubation by liquid-chromatography-coupled mass spectrometry (LC–MS)

[13] = bacteroides stercoris, 12 h, 2 µM
Description: The drug is tested on Bacteroides stercoris strain: ATCC43183 for biotransformation. The drug concentrations were measured before and after a 12-h incubation by liquid-chromatography-coupled mass spectrometry (LC–MS)

[14] = bacteroides fragilis, 12 h, 2 µM
Description: The drug is tested on Bacteroides fragilis strain: DS-208 for biotransformation. The drug concentrations were measured before and after a 12-h incubation by liquid-chromatography-coupled mass spectrometry (LC–MS)

[15] = The drug is tested on Bacteroides cellulosilyticus strain: DSM14838 for biotransformation. The drug concentrations were measured before and after a 12-h incubation by liquid-chromatography-coupled mass spectrometry (LC–MS); conditions: 2 µM
[16] = The drug is tested on Ruminococcus torques strain: ATCC27756 for biotransformation. The drug concentrations were measured before and after a 12-h incubation by liquid-chromatography-coupled mass spectrometry (LC–MS); assay type: ADME; set-up: dose 2 uM, timepoint 0 vs 12 hours; conditions: 2 µM
[17] = The drug is tested on Enterobacter cancerogenus strain: ATCC35316 for biotransformation. The drug concentrations were measured before and after a 12-h incubation by liquid-chromatography-coupled mass spectrometry (LC–MS); conditions: 2 µM
[18] = segatella copri, 12 h, 2 µM
Description: The drug is tested on Prevotella copri strain: DSM18205 for biotransformation. The drug concentrations were measured before and after a 12-h incubation by liquid-chromatography-coupled mass spectrometry (LC–MS)

[19] = bacteroides thetaiotaomicron, 12 h, 2 µM
Description: The drug is tested on Bacteroides thetaiotaomicron strain: 7330 for biotransformation. The drug concentrations were measured before and after a 12-h incubation by liquid-chromatography-coupled mass spectrometry (LC–MS)

[20] = The drug is tested on Blautia hansenii strain: DSM20583 for biotransformation. The drug concentrations were measured before and after a 12-h incubation by liquid-chromatography-coupled mass spectrometry (LC–MS); conditions: 2 µM

SMILES | Bacterial Biotransformation [1] | Bacterial Biotransformation [2] | Bacterial Biotransformation [3] | Bacterial Biotransformation [4] | Bacterial Biotransformation [5] | Bacterial Biotransformation [6] | Bacterial Biotransformation [7] | Bacterial Biotransformation [8] | Bacterial Biotransformation [9] | Bacterial Biotransformation [10] | Bacterial Biotransformation [11] | Bacterial Biotransformation [12] | Bacterial Biotransformation [13] | Bacterial Biotransformation [14] | Bacterial Biotransformation [15] | Bacterial Biotransformation [16] | Bacterial Biotransformation [17] | Bacterial Biotransformation [18] | Bacterial Biotransformation [19] | Bacterial Biotransformation [20]
CCN1CCCC1CNC(=O)c1cc(S(=O)(=O)CC)c(N)cc1OC (stereo not drawn) [AMISULPRIDE] | Compound NOT metabolized | Compound NOT metabolized | Compound NOT metabolized | Compound NOT metabolized | Compound NOT metabolized | Compound NOT metabolized | Compound NOT metabolized | Compound NOT metabolized | Compound NOT metabolized | Compound NOT metabolized | Compound NOT metabolized | Compound NOT metabolized | Compound NOT metabolized | Compound NOT metabolized | Compound NOT metabolized | Compound NOT metabolized | Compound NOT metabolized | Compound NOT metabolized | Compound NOT metabolized | –
O=C(O)c1cc(/N=N/c2ccc(S(=O)(=O)Nc3ccccn3)cc2)ccc1O [SULFASALAZINE] | – | Compound metabolized | Compound metabolized | Compound metabolized | Compound metabolized | Compound metabolized | Compound metabolized | Compound metabolized | Compound metabolized | Compound NOT metabolized | Compound metabolized | Compound metabolized | Compound metabolized | Compound metabolized | Compound metabolized | Compound metabolized | – | Compound metabolized | Compound metabolized | Compound metabolized
Nc1ccc(/N=N/c2ccccc2)c(N)n1 [PHENAZOPYRIDINE] | – | Compound metabolized | Compound metabolized | Compound metabolized | Compound metabolized | Compound metabolized | Compound metabolized | Compound metabolized | Compound metabolized | Compound NOT metabolized | Compound metabolized | Compound metabolized | – | Compound metabolized | Compound metabolized | Compound metabolized | – | Compound metabolized | Compound metabolized | Compound metabolized
CC[C@H](C)C(=O)O[C@H]1C[C@@H](C)C=C2C=C[C@H](C)[C@H](CC[C@@H]3C[C@@H](O)CC(=O)O3)[C@H]21 [LOVASTATIN] | Compound NOT metabolized | Compound NOT metabolized | Compound NOT metabolized | Compound NOT metabolized | Compound NOT metabolized | Compound metabolized | Compound metabolized | Compound NOT metabolized | Compound NOT metabolized | – | Compound NOT metabolized | Compound NOT metabolized | Compound NOT metabolized | – | Compound metabolized | Compound NOT metabolized | Compound metabolized | Compound NOT metabolized | Compound metabolized | –
CC(=O)SCC(Cc1ccccc1)C(=O)NCC(=O)OCc1ccccc1 (stereo not drawn) [RACECADOTRIL] | – | Compound NOT metabolized | Compound metabolized | Compound NOT metabolized | Compound NOT metabolized | Compound metabolized | Compound metabolized | Compound NOT metabolized | Compound metabolized | Compound metabolized | – | Compound NOT metabolized | Compound metabolized | Compound metabolized | Compound metabolized | – | – | Compound metabolized | Compound metabolized | Compound metabolized
CC(=O)Nc1ccc(OC(C)=O)cc1 [DIACETAMATE] | Compound metabolized | Compound metabolized | Compound metabolized | Compound metabolized | Compound metabolized | Compound metabolized | Compound NOT metabolized | Compound metabolized | Compound metabolized | Compound metabolized | Compound metabolized | Compound metabolized | Compound metabolized | Compound metabolized | Compound metabolized | Compound metabolized | – | Compound metabolized | Compound metabolized | Compound NOT metabolized
CN1C[C@H](C(=O)N[C@]2(C)O[C@@]3(O)[C@@H]4CCCN4C(=O)[C@H](Cc4ccccc4)N3C2=O)C=C2c3cccc4[nH]cc(c34)C[C@H]21.CN1C[C@H](C(=O)N[C@]2(C)O[C@@]3(O)[C@@H]4CCCN4C(=O)[C@H](Cc4ccccc4)N3C2=O)C=C2c3cccc4[nH]cc(c34)C[C@H]21.O=C(O)C(O)C(O)C(=O)O [ERGOTAMINE TARTRATE] | Compound metabolized | Compound metabolized | Compound NOT metabolized | Compound NOT metabolized | Compound metabolized | Compound metabolized | – | Compound metabolized | Compound metabolized | Compound metabolized | Compound metabolized | Compound metabolized | Compound metabolized | Compound metabolized | Compound metabolized | Compound NOT metabolized | Compound metabolized | Compound metabolized | Compound metabolized | Compound metabolized
CN1CCC[C@@H]1CCO[C@](C)(c1ccccc1)c1ccc(Cl)cc1.O=C(O)/C=C/C(=O)O [CLEMASTINE FUMARATE] | Compound NOT metabolized | Compound NOT metabolized | Compound metabolized | Compound NOT metabolized | Compound NOT metabolized | Compound metabolized | Compound metabolized | Compound NOT metabolized | Compound NOT metabolized | Compound metabolized | – | Compound NOT metabolized | Compound metabolized | Compound metabolized | Compound metabolized | Compound NOT metabolized | – | Compound metabolized | Compound metabolized | Compound metabolized
